Source: ChEMBL document CHEMBL1221195, “Post-translational enzyme activation in an animal via optimized conditional protein splicing” (2007)
The source made the active and inactive calls. The calls are words filed in the database; no cut-off is given here.

Columns and labels:
S2 [1] = test: Induction of luciferase protein trans-splicing in Drosophila melanogaster S2 cells transfected with N-luc and C-luc assessed as increase in luciferase activity at 100 nM after 4 hrs by Western blot analysis; assay type: functional, cell-based
S2 [2] = test: Induction of luciferase protein trans-splicing in Drosophila melanogaster S2 cells transfected with N-luc and C-luc assessed as increase in luciferase activity after 4 hrs by Western blot analysis; assay type: functional, cell-based
S2 [3] = test: Induction of luciferase protein trans-splicing in Drosophila melanogaster S2 cells transfected with N-luc C1A mutant and C-luc N45A mutant assessed as increase in luciferase activity at 100 nM after 4 hrs by Western blot analysis; assay type: functional, cell-based
S2 [4] = test: Induction of luciferase protein trans-splicing in Drosophila melanogaster S2 cells transfected with N-luc and C-luc assessed as increase in luciferase activity at 100 nM after 4 hrs at 25 degC; assay type: functional, cell-based
[5] = Induction of luciferase protein trans-splicing in Drosophila melanogaster S2 cells transfected with N-luc and C-luc assessed as increase in luciferase activity at 100 nM after 4 hrs at 21 degC relative to control; assay type: functional
[6] = Induction of luciferase protein trans-splicing in Drosophila melanogaster S2 cells transfected with N-luc and C-luc assessed as increase in luciferase activity at 100 nM after 4 hrs at 28 degC relative to control; assay type: functional
[7] = Induction of luciferase protein trans-splicing in Drosophila melanogaster S2 cells transfected with N-luc and C-luc and FRB assessed as increase in luciferase activity at 100 nM after 4 hrs relative to control; assay type: functional
[8] = Induction of luciferase protein trans-splicing in Drosophila melanogaster S2 cells transfected with N-luc and C-luc and 2 copies of FRB assessed as increase in luciferase activity at 100 nM after 4 hrs relative to control; assay type: functional
[9] = Induction of luciferase protein trans-splicing in Drosophila melanogaster S2 cells transfected with N-luc and C-luc and 3 copies of FRB assessed as increase in luciferase activity at 100 nM after 4 hrs relative to control; assay type: functional
S2 [10] = test: Induction of luciferase protein trans-splicing in Drosophila melanogaster S2 cells transfected with N-luc and C-lucFRB2 assessed as increase in luciferase activity at 100 nM after 4 hrs; assay type: functional, cell-based; settings: TDE = time-dependent effect
S2 [11] = test: Induction of luciferase protein trans-splicing in Drosophila melanogaster S2 cells transfected with N-luc and C-lucFRB2 assessed as increase in luciferase activity pretreated with ascomycin for 15 mins measured at 100 nM after 4 hrs; assay type: functional, cell-based
S2 [12] = test: Induction of luciferase protein trans-splicing in Drosophila melanogaster S2 cells transfected with N-luc and C-lucFRB2 assessed as increase in luciferase activity pretreated with ascomycin for 60 mins measured at 100 nM after 4 hrs; assay type: functional, cell-based
Drosophila melanogaster [13] = test: Activation of luciferase in Drosophila melanogaster containing genomically integrated luciferase CPS at 100 uM; assay type: functional, organism-based
Drosophila melanogaster [14] = test: Activation of luciferase in Drosophila melanogaster containing genomically integrated luciferase CPS at 100 uM by Western blot method; assay type: functional, organism-based

SMILES | Activity (S2 [1]) | Activity (S2 [2]) | Activity (S2 [3]) | Activity (S2 [4]) | Ratio [5] | Ratio [6] | Ratio [7] | Ratio [8] | Ratio [9] | Activity (S2 [10]) | Activity (S2 [11]) | Activity (S2 [12]) | Activity (Drosophila melanogaster [13]) | Activity (Drosophila melanogaster [14])
CO[C@H]1C[C@@H]2CC[C@@H](C)[C@@](O)(O2)C(=O)C(=O)N2CCCC[C@H]2C(=O)O[C@H]([C@H](C)C[C@@H]2CC[C@@H](O)[C@H](OC)C2)CC(=O)[C@H](C)/C=C(\C)[C@@H](O)[C@@H](OC)C(=O)[C@H](C)C[C@H](C)/C=C/C=C/C=C/1C [SIROLIMUS] | Active | Dose-dependent effect | inactive | Active | 6 | 22 | 15 | 50 | 75 | tde | inactive | inactive | Active | Active
CO[C@H]1[C@@H](O)[C@H](C)C[C@H](C)/C=C/C=C/C=C(\C)[C@@H](c2c[nH]c3c(C)cccc23)C[C@@H]2CC[C@@H](C)[C@@](O)(O2)C(=O)C(=O)N2CCCC[C@H]2C(=O)O[C@H]([C@H](C)C[C@@H]2CC[C@@H](O)[C@H](OC)C2)C[C@H](O)[C@H](C)/C=C(\C)[C@H]1O | inactive | – | – | – | – | – | – | – | – | – | – | – | – | –
